We go through five compounds from BindingDB's records for doi:10.1021/jm970079r (Virginia Polytechnic Institute and State University, 1997).

Test [1] has as its target T1, Amine oxidase [flavin-containing] B (Bos taurus, UniProt P56560).
T1 sequence (P56560 whole entry): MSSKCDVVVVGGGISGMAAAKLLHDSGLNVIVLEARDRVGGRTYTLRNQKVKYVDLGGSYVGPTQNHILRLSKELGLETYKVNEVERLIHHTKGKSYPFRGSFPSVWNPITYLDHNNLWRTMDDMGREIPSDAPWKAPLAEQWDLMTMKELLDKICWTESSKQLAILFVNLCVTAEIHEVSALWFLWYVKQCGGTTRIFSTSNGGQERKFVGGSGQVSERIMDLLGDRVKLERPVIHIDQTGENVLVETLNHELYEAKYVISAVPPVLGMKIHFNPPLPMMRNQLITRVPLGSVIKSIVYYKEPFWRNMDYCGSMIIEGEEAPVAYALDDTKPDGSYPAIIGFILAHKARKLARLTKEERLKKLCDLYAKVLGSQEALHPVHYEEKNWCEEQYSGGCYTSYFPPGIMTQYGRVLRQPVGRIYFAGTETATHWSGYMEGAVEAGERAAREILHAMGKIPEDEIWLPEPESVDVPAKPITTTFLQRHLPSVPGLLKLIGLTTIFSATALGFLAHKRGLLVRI
As to the kind of experiment: Tested for inhibition- binding affinity against monoamine oxidase B catalyzed oxidation. To be noted: read-out: kon (M-1-s-1).

In test [2] the target is T2, Amine oxidase [flavin-containing] A (Homo sapiens, UniProt P21397).
T2 sequence (P21397 whole entry): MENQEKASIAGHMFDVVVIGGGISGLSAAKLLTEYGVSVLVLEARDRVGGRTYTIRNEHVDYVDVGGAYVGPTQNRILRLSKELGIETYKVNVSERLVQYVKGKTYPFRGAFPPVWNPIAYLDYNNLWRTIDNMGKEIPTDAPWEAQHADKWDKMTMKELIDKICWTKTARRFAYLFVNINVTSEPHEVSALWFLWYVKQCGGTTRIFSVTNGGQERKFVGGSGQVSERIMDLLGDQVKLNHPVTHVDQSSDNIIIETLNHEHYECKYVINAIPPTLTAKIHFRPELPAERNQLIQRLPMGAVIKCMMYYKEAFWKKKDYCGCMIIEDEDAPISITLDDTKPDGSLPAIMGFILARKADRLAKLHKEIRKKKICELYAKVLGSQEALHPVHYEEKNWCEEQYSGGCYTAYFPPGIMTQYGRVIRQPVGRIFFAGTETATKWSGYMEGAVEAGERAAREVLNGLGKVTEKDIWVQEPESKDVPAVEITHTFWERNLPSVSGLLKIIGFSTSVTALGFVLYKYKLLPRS
As to the kind of experiment: Tested for inhibition- binding affinity against monoamine oxidase A catalyzed oxidation. To be noted: read-out: kon (M-1-s-1).

For `C1=C(c2cccc(-c3ccccc3)c2)CCN(C2CC2)C1`, the kon in test [1] was 440000 M⁻¹ s⁻¹; in test [2] it was 680000 M⁻¹ s⁻¹.
Take `C1=C(c2ccccc2)CCN(C2CC2)C1`: the values for the kon in test [1] and in test [2] were 180000 M⁻¹ s⁻¹ and 50000 M⁻¹ s⁻¹, respectively.
For `C1=C(c2ccccc2-c2ccccc2)CCN(C2CC2)C1`, the kon in test [2] was found to be 220000 M⁻¹ s⁻¹.
Regarding `C1=C(c2cccc3ccccc23)CCN(C2CC2)C1`, the on-rate (kon) in test [1] was determined as 110000 M⁻¹ s⁻¹; in test [2], 400000 M⁻¹ s⁻¹.
Taken in the same sequence, the figures for `C1=C(c2ccc3ccccc3c2)CCN(C2CC2)C1` were 150000 M⁻¹ s⁻¹ and 380000 M⁻¹ s⁻¹.
